From US11713305B2, “Zinc sensors for in vivo imaging of beta-cell function by MRI” (The Board of Regents of the University of Texas System, priority 2017, dated 2023)

How the values were obtained:
[1] = Kinetic inertness (transmetalation by Zn(II) in phosphate buffer); type: physicochemical; details: four equivalents of Zn^2+ in phosphate buffer (pH=7), 310 K
Description: Shortly after the first confirmed clinical cases of nephrogenic systemic fibrosis (NSF), increased efforts have been made to design agents with high thermodynamic stability and kinetic inertness (Kallen et al., 2008; Reilly, 2008; Rofsky et al., 2008; Wiginton et al., 2008; Abujuden et al., 2009). The sensors shown here are very stable macrocyclic DO3A-monoamide derivatives with reported log KML>20. However, given that the agents reported here also have a high affinity for Zn^2+ ions, and Zn^2+ has been implicated as the major competing ion for transmetalation of Gd^3+ agents derived from linear polyamine ligands, the kinetic rate of Gd^3+ release is arguably the most critical factor in determining in vivo toxicity (Laurent et al., 2010). Using a previously published method (Laurent et al., 2010) consisting of incubating each agent with four equivalents of Zn^2+ in phosphate buffer (pH=7), we compared the kinetic stability of the agents reported here with the FDA-approved agent Magnevist® (GdDTPA, cf. FIG. 7).
Kinetic inertness was determined according to published procedures with minor modifications (Laurent et al., 2010; Silverio et al., 2009). Stock solutions of phosphate buffer (67 mM, pH=7.4), Gd(III) chelates (10 mM) and ZnCl2 (231 mM) were prepared first. Calculated volumes of stock solutions or water were pipetted into small glass vials to obtain a test solution of 300 μL with 30 mM phosphate, 1.5 mM Gd(III) chelate, and 6.0 mM Zn(II). Samples were measured 15 minutes after the sample temperature stabilized at 310 K. During the entire experiment, the samples inside the NMR tubes were kept in an incubator at 310 K. The T1 of the solutions was determined at 310 K and 0.47 T (20 MHz) at various time points within 7 days. As a reference, GdDTPA was analyzed under the same conditions. The R1^P relaxation rate is obtained by subtracting the diamagnetic contribution of the water relaxation (0.28 s-1) from the observed relaxation rate R1=(1/T1).

[2] = 17O NMR of DyL4 without and with HSA; type: physicochemical; details: no HSA
Procedure: To gain more insights into this process, further ^17O NMR experiments performed using DyL4 in the presence of 0.6 mM HSA (Dy^3+ was substituted for Gd^3+ for improved fitting purposes, FIGS. 2 and 3 and Table 4).
^17O NMR experiments were performed at 9.4 T on a Bruker AVANCE III NMR spectrometer. The temperature was regulated by air flow controlled by a Bruker VT unit. The samples ([Gd^3+]=25 mM; [Dy^3+]=1 mM) were prepared in ^17O enriched water (10%) with the pH being maintained at 7.4 with 100 mM Tris buffer. The sample was loaded into a 18 μL spherical bulb (Wilmad-Lab Glass, Vineland, NJ) and placed inside a 5 mm NMR tube containing 400 μL of water to eliminate any susceptibility effects. Longitudinal relaxation rates (1/T1) were obtained by the inversion recovery method and transverse relaxation rates (1/T2) were obtained by the Carr-Purcell—Meiboom—Gill spin echo technique. The acidified water (pH=3.0) containing 10% enriched ^17O water was used as a reference for the measurements. For the DyL4 complexes (no HSA and with HSA+Zinc), acidified water solutions and 1 mM LaL4+3 mM HSA with zinc (1:1) were used as the corresponding references. The corresponding fittings were performed with the Scientist 3.0 software (Micromath®).
With Dy^3+ solutions the correlation time for dipolar relaxation is governed by the electron spin relaxation time Te which is much shorter than Tm and τR. For this reason, ^17O transversal relaxation rates predominantly originates from Curie spin relaxation (Caravan et al., 2001; Karimi and Helm, 2016). The Curie relaxation is described by Fries (Vigouroux et al., 1999) and simplified by the Swift-Connick equations (Swift and Connick, 1962): […]
The water exchange rates kex and the chemical shift differences (inner-sphere water and bulk water) Δωm can be expressed as: […]
C1 and C2 are empirical constants described by Lewis and Bleaney (1972), and represent the relative contributions of the contact and pseudocontact terms. B is the external magnetic field.

| SMILES | kinetic stability against transmetalation [1] | 1/T2m^298 [2] | A1 [2] | A2 [2] | ER [2] [kcal/mol] | ΔH^‡ [2] [kcal/mol] | kex^298 ([2]; 17O enriched water, TRIS buffered) |
| --- | --- | --- | --- | --- | --- | --- | --- |
| O=C(O)CN1CCN(CC(=O)O)CCN(CC(=O)NCCN(Cc2ccccn2)Cc2ccccn2)CCN(CC(=O)O)CC1 [GdL1] | kinetically inert | – | – | – | – | – | – |
| O=C(O)CN1CCN(CCC(=O)NCCN(Cc2ccccn2)Cc2ccccn2)CCN(CC(=O)O)CCN(CC(=O)O)CC1 [GdL2] | kinetically inert | 600 ± 20 10^4 s^−1 | −73 ± 2 10^6rad s^−1K T^−1 | 0.3 ± 0.1 10^9rad s^−1K^2 T^−1 | 9.56 ± 2.39 | 9.87 ± 0.12 | 4.3 ± 0.1 10^6 s^−1 |
| O=C(O)CN1CCN(CC(=O)O)CCN(CC(=O)NCCN(CCc2ccccn2)Cc2ccccn2)CCN(CC(=O)O)CC1 [GdL4] | kinetically inert | – | – | – | – | – | – |
